According to patent US10710964B2, “Organic electrolyte compounds for redox-flow batteries” (FUNDACIÓN CENTRO DE INVESTIGACIÓN COOPERATIVA DE ENERGÍAS …, priority 2015, dated 2020):
Values after ≈ are worked out from the molar mass of the structure shown. Each block holds one compound with its values, some of them ahead of it.

Assays:
Format in all cases: physicochemical
[1] = Cyclic voltammetry in cavity micro-electrode, three-electrode cell; conditions: for shift of redox potential on sulphonation, lower oxidation state / shift of redox potential on sulphonation, upper oxidation state: 0.1 M HClO4, sulphonated form in comparison to the parent molecule
Protocol: Attenuated Total Reflectance-Fourier Transform InfraRed (ATR-FTIR) spectra were recorded on Vertex 70 spectrometer (Bruker) in the range of wavelength of 4000-400 cm^−1. Differential Scanning Calorimetry measurements (DSC) were carried out on a TA Instruments Q2000 model in a sealed Al pan at a heating rate of 5° C. min^−1 in the temperature range between −80° C. and 100° C. The cyclic voltammetry measurements were performed in a cavity micro-electrode (CME) with an electrochemical interface area around a fraction of mm^2 and ohmic drop coming from the bulk of the electrolyte that can be neglected, allowing the use of high scan rates [C. Cachet-Vivier et al.; Electrochim. Acta 47, 181-189 (2001)]. The samples were studied electrochemically by using a three-electrode configuration cell in DI-H2O and the different supporting electrolytes with a platinum wire as counter electrode and Ag/AgCl or Hg/HgO as reference electrode depending of the acidic or basic pH of the media respectively.
The microcavity was filled with a homogenous mixture of active material (50 wt %) and carbon super C-65 (50 wt %) by applying pressure against an agate mortar. The cavity was cleaned by immersing the electrode in ethanol in an ultrasonic bath between experiments. For the CME, scan rates approximately an order of magnitude larger could be used without distortion usually seen in conventional cells [R. Lin et al., J. Electrochem. Soc. 1, A7-A12 (2009)]. All the experiments using CME were made three times for the same sample to check reliability. […] Cyclic voltammetry experiments were done from 10 mV/s to 1 V/s using a multichannel potentiostat/galvanostat (VMP3, Biologic). In order to make a direct comparison between the different samples, all current values were normalized to current values measured in the pure capacitive behavior region.

[2] = Solubility studies (maximum concentration in aqueous media); conditions: for solubility (concentration values): medium not given; for solubility: 0.1 M HClO4, room temperature
Protocol: These were conducted in glass vials of 25 ml volume in which the organic electrolyte compound mass ranging between 15-30 mg approximately was dissolved in DI-H2O and also in the different supporting electrolytes. The procedure was performed in the following steps: after the addition of the solid, a small volume (usually starting from 25 μl) was added by using a micropipette, the suspension was vigorously shaken by hand until complete homogenization of the media in the whole vial (bottom part and walls) was observed. After that, the vials are left standing overnight. The day after, possible precipitation at the bottom of the vial was evaluated. If some solid appeared, the addition of more volume of solvent and/or supporting electrolyte was continued until the solid disappeared completely. […] The final concentration value was only calculated for those samples showing a stable solution after several weeks.

[3] = Experimental density of the electrolyte solutions
Excerpt: Considering the two electron-proton process taking place in the present redox molecules, for a constant amount of grams of salt the optimization of the final concentration will be a balance between the molecular weight and the packing density of the organic compounds in the electrolyte solution. Highest concentration values and subsequently of chemical-electrical energy density stored in the present systems would be achieved as higher the packing density and lower the molecular weight of the molecule. The experimental density of the present solutions containing the redox neutral salts were measured. Densities of 1.04 g/ml, 1.00 g/ml and 0.95 g/ml were measured for solutions 1.23 M of Alizarine SH in H2O, 1.17 M of Alizarine SH in H2O and 1.46 M of Alizarine SH in 0.1 M HClO4 respectively.

[4] = aqueous BR buffer at pH=7, room temperature
[5] = pure/neat DI-H2O, room temperature
[6] = vs. Ag/AgCl ref. electrode, BR buffer pH=7

shift of redox potential on sulphonation, lower oxidation state [1]: ~100 mV | shift of redox potential on sulphonation, upper oxidation state [1]: ~15 mV
SMILES: O=C1c2ccccc2C(=O)c2c(O)ccc(O)c21 [quinizarin, 1,4-dihydroxy-9,10-anthraquinone, reference compound]

SMILES: O=C1C(=C2Nc3ccc(S(=O)(=O)[O-])cc3C2=O)Nc2ccc(S(=O)(=O)[O-])cc21.[Na+].[Na+] [Indigo Carmine-Na^+, 3,3′-dioxo-2,2′-bis-indolyden-5,5′-disulfonic acid disodium salt]
anodic shift of both pairs of peaks relative to Indigo ([1]; BR buffer pH=7): approximately 80 mV

solubility (highest concentration) [2, 4]: up to 0.76 M | solubility (concentration values) [2]: up to 0.76 M | solubility (highest concentration) [2, 5]: up to 0.76 M | peak separation of the two redox peaks ([1]; BR buffer pH=7): 1 V
SMILES: O=C1/C(=C2\Nc3ccc(S(=O)(=O)[O-])cc3C2=O)Nc2ccc(S(=O)(=O)[O-])cc21.OCC[N+](CCO)(CCO)CCO.OCC[N+](CCO)(CCO)CCO [Indigo Carmine-TKEN]

SMILES: O=C1c2ccccc2C(=O)c2c1cc(S(=O)(=O)[O-])c(O)c2O.OC[P+](CO)(CO)CO [Alizarin S. Red-TKMP]
solubility [2]: ~1500 mM | solubility (concentration values) [2]: 1600 mM

SMILES: O=C1c2ccccc2C(=O)c2c1cc(S(=O)(=O)O)c(O)c2O [Alizarin S. Red-H^+]
solubility [2]: ~1500 mM (≈ 480 mg/mL) | solubility (concentration values) [2]: 1600 mM (≈ 512 mg/mL) | density of solution ([3]; 1.17 M solution in H2O): 1.00 g/mL | density of solution ([3]; 1.23 M solution in H2O): 1.04 g/mL | density of solution ([3]; 1.46 M solution in 0.1 M HClO4): 0.95 g/mL

SMILES: O=C1c2ccccc2C(=O)c2c1ccc(O)c2O [alizarin, 1,2-dihydroxy-9,10-anthraquinone, reference compound]
shift of redox potential on sulphonation, lower oxidation state [1]: ~50 mV | shift of redox potential on sulphonation, upper oxidation state [1]: ~35 mV

solubility (highest concentration) [2, 4]: ~400 mM (≈ 169 mg/mL) | solubility (highest concentration) [2, 5]: ~600 mM (≈ 253 mg/mL) | separation of the pair of reversible reduction peaks ([1]; BR buffer pH=3): ~0.75 V | peak separation of the two redox peaks ([1]; BR buffer pH=7): ~1 V | separation of both peaks ([1]; BR buffer pH=9, stabilized at cycle 10): ~0.8 V | anodic shift in DI-H2O relative to BR buffer pH=7 ([1]; DI-H2O, pH ~6): ~170 mV | peak separation of the two redox peaks ([1]; neat DI-H2O): ~1 V
SMILES: O=C1/C(=C2\Nc3ccc(S(=O)(=O)O)cc3C2=O)Nc2ccc(S(=O)(=O)O)cc21 [Indigo Carmine-H^+]

reduction peak at negative potential [1, 6]: −0.44 V | reduction peak at positive potential [1, 6]: 0.31 V
SMILES: O=C1/C(=C2\Nc3ccccc3C2=O)Nc2ccccc21 [Indigo, 2,2′-Bis(2,3-dihydro-3-oxoindolylidene), reference compound]

SMILES: O=C1C(=C2Nc3ccc(S(=O)(=O)[O-])cc3C2=O)Nc2ccc(S(=O)(=O)[O-])cc21.OC[P+](CO)(CO)CO.OC[P+](CO)(CO)CO [Indigo Carmine-TKMP]
peak separation of the two redox peaks ([1]; BR buffer pH=7): 1 V
